Assays:
[1] = target: T1, hP2X3 (Homo sapiens, UniProt P56373); assay: Calcium uptake assay (P2X antagonist assay), P2X3 homomer; type: cell-based; settings: calcium uptake assay, hP2X3; read-out: IC50 hP2X3 (nM), Ca Influx
T1 construct: expressed in transfected cells; host or cells: e.g. HEK293 or 1321N1
T1 sequence (P56373 1-397): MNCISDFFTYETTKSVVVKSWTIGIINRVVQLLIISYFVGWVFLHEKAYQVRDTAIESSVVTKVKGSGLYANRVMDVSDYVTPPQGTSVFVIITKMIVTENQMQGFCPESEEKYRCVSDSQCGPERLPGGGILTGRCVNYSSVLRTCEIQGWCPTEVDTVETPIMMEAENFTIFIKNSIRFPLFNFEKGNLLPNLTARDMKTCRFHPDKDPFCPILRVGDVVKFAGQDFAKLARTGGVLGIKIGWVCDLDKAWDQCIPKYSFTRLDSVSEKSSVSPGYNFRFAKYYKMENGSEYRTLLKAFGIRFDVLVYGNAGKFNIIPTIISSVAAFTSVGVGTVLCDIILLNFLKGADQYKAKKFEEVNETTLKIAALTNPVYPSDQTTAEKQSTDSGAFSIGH
How it was run: (§1)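 Stably or transiently transfected HEK293 or 1321N1 cells; the heteromer is made by adding P2X3 to a P2X2-stable line, with heteromer function isolated pharmacologically. The peak-minus-baseline FLIPR calcium signal gives % inhibition and a 4-parameter-logistic IC50.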

[2] = target: T2, hP2X2/3H (Homo sapiens, UniProt P56373+Q9UBL9); assay: Calcium uptake assay (P2X antagonist assay), P2X2/3 heteromer; type: cell-based; settings: calcium uptake assay, hP2X2/3H; read-out: IC50 hP2X2/3H (nM), Ca Influx
T2 construct: expressed in transfected cells; host or cells: e.g. HEK293 or 1321N1
T2 sequence (Q9UBL9 1-471): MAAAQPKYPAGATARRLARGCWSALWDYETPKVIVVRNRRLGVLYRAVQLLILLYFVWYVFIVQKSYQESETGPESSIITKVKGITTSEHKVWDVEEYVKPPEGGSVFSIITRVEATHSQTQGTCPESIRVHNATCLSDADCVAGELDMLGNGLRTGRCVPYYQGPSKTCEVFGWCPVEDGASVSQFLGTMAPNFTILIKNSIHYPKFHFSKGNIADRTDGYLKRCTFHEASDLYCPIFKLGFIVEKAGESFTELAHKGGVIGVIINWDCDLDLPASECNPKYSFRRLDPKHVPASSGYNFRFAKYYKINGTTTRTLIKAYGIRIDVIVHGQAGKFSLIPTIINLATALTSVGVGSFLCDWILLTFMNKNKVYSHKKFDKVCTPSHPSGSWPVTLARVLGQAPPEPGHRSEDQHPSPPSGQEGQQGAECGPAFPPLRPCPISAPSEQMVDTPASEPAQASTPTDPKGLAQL
T2 sequence (P56373 1-397): T1 sequence (P56373 1-397)
How it was run: as §1

Compound: Cc1ccc(-c2cc(C#N)cc(C(=O)NCc3ccc(C)nc3)c2)nc1 [Compound 160]
- IC50 [1]: 100 to 500 nM
- IC50 [2]: 501 to 1000 nM

Compound: Cc1ccc(-c2cc(C(N)=O)cc(C(=O)NCc3ccc(C)nc3)c2)cc1 [Compound 161]
- IC50 [1]: < 100 nM
- IC50 [2]: 100 to 500 nM

Compound: Cc1ccc(-c2cc(C(=O)NCc3ccc(C)nc3)cc(C(=O)N(C)Cc3ccncc3)c2)cc1 [Compound 162, N3,4′-Dimethyl-N-5-((6-methylpyridin-3-yl)methyl)-N3-(pyridin-4-ylmethyl)biphenyl-3,5-dicarboxamide]
- IC50 [1]: < 100 nM
- IC50 [2]: < 100 nM

Compound: Cc1ccc(-c2cc(C(=O)NCc3ccc(C)nc3)cc(C(=O)N(C)c3ccncc3)c2)cc1 [Compound 163, N3,4′-Dimethyl-N5-((6-methylpyridin-3-yl)methyl)-N3-(pyridin-4-yl)biphenyl-3,5-dicarboxamide]
- IC50 [1]: < 100 nM
- IC50 [2]: 100 to 500 nM

Compound: Cc1ccc(-c2cc(C(=O)NCc3ccc(C)nc3)cc(C(=O)N(C)c3ccccn3)c2)cc1 [Compound 164]
- IC50 [1]: < 100 nM
- IC50 [2]: 100 to 500 nM

Compound: Cc1ccc(-c2cc(C(=O)NCc3ccc(C)nc3)cc(C(=O)N(C)[C@@H]3CCNC3)c2)cc1 [Compound 165, (R)—N3,4′-Dimethyl-N5-((6-methylpyridin-3-yl)methyl)-N3-(pyrrolidin-3-yl)biphenyl-3,5-dicarboxamide]
- IC50 [1]: 100 to 500 nM
- IC50 [2]: 501 to 1000 nM

Compound: Cc1ccc(-c2cc(C(=O)NCc3ccc(C)nc3)cc(C(=O)N(C)C)c2)cc1 [Compound 166, N3,N3,4′-Trimethyl-N5-((6-methylpyridin-3-yl)methyl)biphenyl-3,5-dicarboxamide]
- IC50 [1]: < 100 nM
- IC50 [2]: 100 to 500 nM

Compound: Cc1ccc(-c2cc(C(=O)NCc3ccc(C)nc3)cc(C(=O)N(C)C3CCNCC3)c2)cc1 [Compound 167]
- IC50 [1]: 100 to 500 nM
- IC50 [2]: > 1000 nM

Compound: Cc1ccc(-c2cc(C(=O)NCc3ccc(C)nc3)cc(C(=O)N(C)CC(F)(F)F)c2)cc1 [Compound 168, N3,4′-Dimethyl-N5-((6-methylpyridin-3-yl)methyl)-N3-(2,2,2-trifluoroethyl)biphenyl-3,5-dicarboxamide]
- IC50 [1]: < 100 nM
- IC50 [2]: < 100 nM

Compound: Cc1ccc(-c2cc(C(=O)NCc3ccc(C)nc3)cc(C(=O)N(C)CC3CCNCC3)c2)cc1 [Compound 169]
- IC50 [1]: 100 to 500 nM
- IC50 [2]: 100 to 500 nM

Compound: CCN(CC)C(=O)c1cc(C(=O)NCc2cnc(C)nc2)cc(-c2ccc(C)cc2)c1 [Compound 170]
- IC50 [1]: < 100 nM
- IC50 [2]: 100 to 500 nM

Compound: Cc1ccc(-c2cc(C(=O)N[C@H](C)c3ccc(C)nc3)cc(S(C)(=O)=O)c2)cc1 [Compound 171]
- IC50 [1]: < 100 nM
- IC50 [2]: < 100 nM

Compound: Cc1ccc(-c2cc(C(=O)NCc3ccc(C)nc3)cc(C(=O)N(C)[C@H]3CCNC3)c2)cc1 [Compound 172]
- IC50 [1]: < 100 nM
- IC50 [2]: 100 to 500 nM

Compound: Cc1ccc(-c2cc(C(=O)N[C@H](C)c3ccc(C)nc3)cc(C(=O)N3CCCC3)c2)nc1 [Compound 173]
- IC50 [1]: < 100 nM
- IC50 [2]: < 100 nM

Compound: Cc1ccc(-c2cc(C(=O)N[C@H](C)c3cnc(C)nc3)cc(C(=O)N3CCCC3)c2)nc1 [Compound 174]
- IC50 [1]: < 100 nM
- IC50 [2]: < 100 nM

Compound: Cc1ccc(-c2cc(C(=O)NC(C)c3csc(C)n3)cc(C(=O)N3CCCC3)c2)nc1 (stereo not drawn) [Compound 175]
- IC50 [1]: < 100 nM
- IC50 [2]: 100 to 500 nM

Compound: Cc1ccc(-c2cc(C(=O)N[C@H](C)c3ccc(C)nc3)cc(C(=O)N3CCCC3)c2)cc1 [Compound 176]
- IC50 [1]: < 100 nM
- IC50 [2]: < 100 nM

Compound: Cc1ccc(-c2cc(C(=O)N[C@@H](C)c3ccc(C)nc3)cc(C(=O)N3CCCC3)c2)cc1 [Compound 177]
- IC50 [1]: > 1000 nM
- IC50 [2]: > 1000 nM

Compound: Cc1ccc(-c2cc(C(=O)N[C@H](C)c3ccc(C)nc3)cc(C(=O)N3CC[C@@H](O)C3)c2)nc1 [Compound 178]
- IC50 [1]: < 100 nM
- IC50 [2]: < 100 nM

Compound: Cc1ccc(-c2cc(C(=O)NCc3ccc(C)nc3)cc(C(=O)N3CC[C@@H](O)C3)c2)nc1 [Compound 179]
- IC50 [1]: < 100 nM
- IC50 [2]: < 100 nM

Compound: Cc1ccc(-c2cc(C(=O)N[C@H](C)c3ccc(C(F)(F)F)nc3)cc(S(C)(=O)=O)c2)nc1 [Compound 181, (R)-3-(5-Methylpyridin-2-yl)-5-(methylsulfonyl)-N-(1-(6-(trifluoromethyl)pyridin-3-yl)ethyl)benzamide]
- IC50 [1]: < 100 nM
- IC50 [2]: 100 to 500 nM

Compound: Cc1ccc(-c2cc(C(=O)NCc3ccc(C)nc3)cc(S(=O)(=O)CC(C)C)c2)cc1 [Compound 183]
- IC50 [1]: < 100 nM
- IC50 [2]: < 100 nM

Compound: Cc1ccc(-c2cc(C(=O)NCc3cnc(C)nc3)cc(S(=O)(=O)CC(C)C)c2)cc1 [Compound 184]
- IC50 [1]: < 100 nM
- IC50 [2]: < 100 nM

Compound: Cc1ccc(-c2cc(C(=O)NCc3ccc(C)nc3)cc(C(=O)N3Cc4ccccc4C3)c2)cc1 [Compound 185, 5-(Isoindoline-2-carbonyl)-4′-methyl-N-((6-methylpyridin-3-yl)methyl)biphenyl-3-carboxamide]
- IC50 [1]: 100 to 500 nM
- IC50 [2]: 100 to 500 nM

Compound: Cc1ccc(-c2cc(C(=O)NCc3ccc(C)nc3)cc(C(=O)N3CCc4ccccc43)c2)cc1 [Compound 186]
- IC50 [1]: 100 to 500 nM
- IC50 [2]: < 100 nM

Compound: Cc1ccc(-c2cc(C(=O)NCc3ccc(C)nc3)cc(C(=O)N3CCc4ccccc4C3)c2)cc1 [Compound 187, 4′-Methyl-N-((6-methylpyridin-3-yl)methyl)-5-(1,2,3,4-tetrahydroisoquinoline-2-carbonyl)biphenyl-3-carboxamide]
- IC50 [1]: 100 to 500 nM
- IC50 [2]: 100 to 500 nM

Compound: Cc1ccc(-c2cc(C(=O)NCc3ccc(C)nc3)cc(C(=O)N3CCCc4ccccc43)c2)cc1 [Compound 188]
- IC50 [1]: 100 to 500 nM
- IC50 [2]: 100 to 500 nM

Compound: Cc1ccc(-c2cc(C(=O)NCc3ccc(C)nc3)cc(C(=O)N3C(C)CCC3C)c2)cc1 (stereo not drawn) [Compound 189]
- IC50 [1]: < 100 nM
- IC50 [2]: < 100 nM

Compound: Cc1ccc(-c2cc(C(=O)NCc3ccc(C)nc3)cc(C(=O)N3CCOc4ccccc43)c2)cc1 [Compound 190]
- IC50 [1]: 100 to 500 nM
- IC50 [2]: < 100 nM

Compound: Cc1ccc(-c2cc(C(=O)N[C@H](C)c3cnc(C)nc3)cc(C(=O)N3CCN4CCCC4C3)c2)cc1 (stereo partly drawn) [Compound 191, 4′-Methyl-N—((R)-1-(2-methylpyrimidin-5-yl)ethyl)-5-(octahydropyrrolo[1,2-a]pyrazine-2-carbonyl)biphenyl-3-carboxamide]
- IC50 [1]: < 100 nM
- IC50 [2]: < 100 nM

Compound: Cc1ccc(-c2cc(C(=O)N[C@H](C)c3ccc(C)nc3)cc(C(=O)N3CCN4CCCC4C3)c2)cc1 (stereo partly drawn) [Compound 192]
- IC50 [1]: < 100 nM
- IC50 [2]: < 100 nM

Compound: Cc1ccc(-c2cc(C(=O)NCc3ccc(C)nc3)cc(C(=O)N3C4CCC3CC4)c2)cc1 [Compound 193]
- IC50 [1]: < 100 nM
- IC50 [2]: < 100 nM

Compound: Cc1ccc(-c2cc(C(=O)N[C@H](C)c3cnc(C)nc3)cc(S(=O)(=O)CC(C)C)c2)cc1 [Compound 194]
- IC50 [1]: < 100 nM
- IC50 [2]: < 100 nM

Compound: Cc1ccc(-c2cc(C(=O)NCc3ccc(C)nc3)cc(C(=O)N3[C@H](C)CC[C@H]3C)c2)cc1 [Compound 195]
- IC50 [1]: < 100 nM
- IC50 [2]: < 100 nM

Compound: Cc1ccc(-c2cc(C(=O)N[C@H](C)c3ccc(C)nc3)cc(S(=O)(=O)CC(C)C)c2)cc1 [Compound 196]
- IC50 [1]: 100 to 500 nM
- IC50 [2]: < 100 nM

Compound: Cc1ccc(-c2cc(C(=O)N[C@H](C)c3ccc(C)nc3)cc(S(=O)(=O)C(C)C)c2)cc1 [Compound 197]
- IC50 [1]: < 100 nM
- IC50 [2]: < 100 nM

Reference: patent US8946439B2, “Amide compounds, compositions and uses thereof” (Evotec AG, priority 2008, dated 2015)
